Several values for one entry are separate records, joined by “and”; a condition that tells them apart may be missing. Equal entries are not always repeated.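 A five-concentration, 48-hour dose response in 96-well plates underlies each endpoint, interpolated linearly between surrounding concentrations. GI50 = concentration required for 50% inhibition of growth. Definition used: TGI = concentration required for complete inhibition of growth.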
Columns and labels:
Experiment in all cases: inhibition of tumour cell growth, NCI panel, 48 h
MOLT-4 leukemia = tested on: MOLT-4 leukemia
SK-OV-3 ovarian = tested on: SK-OV-3 ovarian
A498 renal = tested on: A498 renal
IGROV1 ovarian = tested on: IGROV1 ovarian
SF-295 CNS = tested on: SF-295 CNS
SR leukemia = tested on: SR leukemia
NCI-H522 lung = tested on: NCI-H522 lung
UACC-62 melanoma = tested on: UACC-62 melanoma
KM12 colon = tested on: KM12 colon
PC-3 prostate = tested on: PC-3 prostate

Structure (SMILES): C=CCC12CCC(=O)[C@@]1(C)CC=C(O)C2=O (stereo not given in full)
- TGI (MOLT-4 leukemia): > 100 µM
- TGI (SK-OV-3 ovarian): > 100 µM
- TGI (A498 renal): > 100 µM
- TGI (IGROV1 ovarian): > 100 µM
- TGI (SF-295 CNS): > 100 µM
- TGI (SR leukemia): > 100 µM
- TGI (NCI-H522 lung): > 100 µM
- TGI (UACC-62 melanoma): > 100 µM
- TGI (KM12 colon): > 100 µM

Structure (SMILES): Cc1ccc(NC(=O)c2nc(S(C)(=O)=O)oc2-c2ccc(F)cc2)cc1Nc1ccc2ncn(C)c(=O)c2c1
- GI50 (SK-OV-3 ovarian): 14.1 µM
- TGI (SK-OV-3 ovarian): 27.1 µM
- GI50 (A498 renal): 16.3 µM
- TGI (A498 renal): 29.8 µM
- GI50 (PC-3 prostate): 2.13 µM
- TGI (PC-3 prostate): 4.47 µM
- GI50 (SF-295 CNS): 16 µM
- TGI (SF-295 CNS): 31 µM
- GI50 (UACC-62 melanoma): 2.03 µM
- TGI (UACC-62 melanoma): 4.88 µM
- GI50 (KM12 colon): 3.12 µM
- TGI (KM12 colon): 11.1 µM

Structure (SMILES): O=C(O)CCC1CCc2cccc(OCC(=O)O)c2C1=O (stereo not given)
- TGI (MOLT-4 leukemia): > 100 µM
- TGI (SK-OV-3 ovarian): > 100 µM
- TGI (A498 renal): > 100 µM
- TGI (IGROV1 ovarian): > 100 µM
- TGI (SF-295 CNS): > 100 µM
- TGI (UACC-62 melanoma): > 100 µM

Structure (SMILES): O=C(O)c1cn(C2CC2)c2cc(N3CCN(C(=O)Nc4nc(-c5ccc(Br)cc5)cs4)CC3)c(F)cc2c1=O
- GI50 (MOLT-4 leukemia): 0.622 µM
- TGI (MOLT-4 leukemia): > 100 µM
- GI50 (IGROV1 ovarian): 3.38 µM
- TGI (IGROV1 ovarian): > 100 µM
- GI50 (SF-295 CNS): 3.06 µM
- TGI (SF-295 CNS): > 100 µM
- GI50 (SR leukemia): 0.454 µM
- TGI (SR leukemia): > 100 µM
- GI50 (NCI-H522 lung): 2.41 µM
- TGI (NCI-H522 lung): > 100 µM
- GI50 (KM12 colon): 1.93 µM
- TGI (KM12 colon): > 100 µM

Structure (SMILES): CCOC(=O)Nc1ccc2c(c1)N(C(=O)CCN(CC)CC)c1ccccc1S2
- GI50 (MOLT-4 leukemia): 13.7 µM
- TGI (MOLT-4 leukemia): 71.1 µM and 44.3 µM
- GI50 (SK-OV-3 ovarian): 106 µM
- TGI (SK-OV-3 ovarian): 70.7 µM and 183 µM
- GI50 (A498 renal): 33.3 µM
- TGI (A498 renal): 58.9 µM and 99.7 µM
- GI50 (IGROV1 ovarian): 64 µM
- TGI (IGROV1 ovarian): > 94.1 µM and 138 µM
- TGI (SF-295 CNS): 54.4 µM
- TGI (SR leukemia): 43.4 µM
- GI50 (NCI-H522 lung): 17 µM
- TGI (NCI-H522 lung): 37.1 µM and 167 µM
- GI50 (UACC-62 melanoma): 46.7 µM
- TGI (UACC-62 melanoma): 52.8 µM and 112 µM
- GI50 (KM12 colon): 35.9 µM
- TGI (KM12 colon): 24.6 µM and 110 µM

Structure (SMILES): O=C(Cc1ccccc1)N/N=C(/c1nc2ccc([N+](=O)[O-])cc2[nH]c1=O)C(O)c1ccccc1Cl (stereo not given)
- TGI (MOLT-4 leukemia): > 100 µM
- TGI (SK-OV-3 ovarian): > 100 µM
- TGI (A498 renal): > 100 µM
- TGI (IGROV1 ovarian): > 100 µM
- TGI (SF-295 CNS): > 100 µM
- TGI (SR leukemia): > 100 µM
- TGI (NCI-H522 lung): > 100 µM
- TGI (UACC-62 melanoma): > 100 µM
- TGI (KM12 colon): > 100 µM

Structure (SMILES): Cc1cc2c(cc1C)[n+](=O)c(C(=O)CC(=O)C(=O)Nc1ccccc1C(C)C)c(C)n2[O-]
- TGI (MOLT-4 leukemia): > 100 µM
- TGI (SK-OV-3 ovarian): > 100 µM
- TGI (A498 renal): > 100 µM
- TGI (IGROV1 ovarian): > 100 µM
- TGI (SF-295 CNS): > 100 µM
- TGI (SR leukemia): > 100 µM
- TGI (NCI-H522 lung): > 100 µM
- TGI (UACC-62 melanoma): > 100 µM
- TGI (KM12 colon): > 100 µM

Structure (SMILES): COc1cc2c(cc1OCCCCn1c(-c3cccs3)nc3ccccc31)N=C[C@@H]1CCCN1C2=O
- GI50 (MOLT-4 leukemia): 3.79 µM
- TGI (MOLT-4 leukemia): > 100 µM
- GI50 (SK-OV-3 ovarian): 3.32 µM
- TGI (SK-OV-3 ovarian): 9.19 µM
- GI50 (A498 renal): 1.68 µM
- TGI (A498 renal): 4.76 µM
- GI50 (IGROV1 ovarian): 0.754 µM
- TGI (IGROV1 ovarian): 2.86 µM
- GI50 (SR leukemia): 0.45 µM
- TGI (SR leukemia): > 100 µM
- GI50 (NCI-H522 lung): 1.04 µM
- TGI (NCI-H522 lung): 3.14 µM
- GI50 (UACC-62 melanoma): 1.57 µM
- TGI (UACC-62 melanoma): 3.08 µM
- GI50 (KM12 colon): 1.92 µM
- TGI (KM12 colon): 5.38 µM

Structure (SMILES): NC1=NC2=C(CCCC2)C(c2cccs2)S1 (stereo not given)
- TGI (MOLT-4 leukemia): > 100 µM
- TGI (SK-OV-3 ovarian): > 100 µM
- TGI (A498 renal): > 100 µM
- TGI (IGROV1 ovarian): > 100 µM
- TGI (SF-295 CNS): > 100 µM
- TGI (NCI-H522 lung): > 100 µM
- TGI (UACC-62 melanoma): > 100 µM
- TGI (KM12 colon): > 100 µM

Structure (SMILES): c1ccc(-c2cn(-c3ccccc3)c(-c3ccccc3)n2)cc1
- GI50 (MOLT-4 leukemia): 3.16 µM
- TGI (MOLT-4 leukemia): > 100 µM
- GI50 (SK-OV-3 ovarian): 19.3 µM
- TGI (SK-OV-3 ovarian): 34 µM
- GI50 (A498 renal): 15.4 µM
- TGI (A498 renal): 28.8 µM
- GI50 (IGROV1 ovarian): 11.9 µM
- TGI (IGROV1 ovarian): 25.2 µM
- GI50 (PC-3 prostate): 17.1 µM
- TGI (PC-3 prostate): 45.6 µM
- GI50 (SF-295 CNS): 12.9 µM
- TGI (SF-295 CNS): 28.4 µM
- GI50 (NCI-H522 lung): 13.3 µM
- TGI (NCI-H522 lung): 27.2 µM
- GI50 (UACC-62 melanoma): 15.3 µM
- TGI (UACC-62 melanoma): 29.8 µM
- GI50 (KM12 colon): 2.19 µM
- TGI (KM12 colon): 4.67 µM

Structure (SMILES): CN(C)c1ccc(/C=c2\sc3nnc(-c4cccnc4)n3c2=O)cc1
- TGI (MOLT-4 leukemia): > 100 µM
- TGI (SK-OV-3 ovarian): > 100 µM
- TGI (A498 renal): > 100 µM
- TGI (IGROV1 ovarian): > 100 µM
- TGI (SF-295 CNS): > 100 µM
- TGI (NCI-H522 lung): > 100 µM
- TGI (UACC-62 melanoma): > 100 µM
- TGI (KM12 colon): > 100 µM

Structure (SMILES): OCCCc1cnco1
- TGI (MOLT-4 leukemia): > 100 µM
- TGI (SK-OV-3 ovarian): > 100 µM
- TGI (A498 renal): > 100 µM
- TGI (IGROV1 ovarian): > 100 µM
- TGI (SF-295 CNS): > 100 µM
- TGI (SR leukemia): > 100 µM
- TGI (UACC-62 melanoma): > 100 µM
- TGI (KM12 colon): > 100 µM

Structure (SMILES): N#Cc1c2ccccc2c2nnc3ccccc3n12
- GI50 (MOLT-4 leukemia): 47.1 µM
- TGI (MOLT-4 leukemia): > 100 µM
- GI50 (SK-OV-3 ovarian): > 100 µM
- TGI (SK-OV-3 ovarian): > 100 µM
- GI50 (IGROV1 ovarian): 19.3 µM
- TGI (IGROV1 ovarian): 92.2 µM
- GI50 (PC-3 prostate): 63.5 µM
- TGI (PC-3 prostate): > 100 µM
- GI50 (SF-295 CNS): 49 µM
- TGI (SF-295 CNS): > 100 µM
- GI50 (SR leukemia): 32.7 µM
- TGI (SR leukemia): > 100 µM
- GI50 (KM12 colon): 48.7 µM
- TGI (KM12 colon): > 100 µM

Structure (SMILES): Cn1c2cc([N+](=O)[O-])ccc2c(=O)c2c(O)cc3c(c21)C=CC(C)(C)O3
- TGI (MOLT-4 leukemia): > 100 µM
- TGI (SK-OV-3 ovarian): 87.8 µM
- TGI (A498 renal): > 100 µM
- TGI (IGROV1 ovarian): > 100 µM
- TGI (SF-295 CNS): 47.1 µM
- TGI (NCI-H522 lung): > 100 µM
- TGI (UACC-62 melanoma): > 100 µM
- TGI (KM12 colon): > 100 µM

Structure (SMILES): CC(=O)CC(=O)NC=O
- TGI (MOLT-4 leukemia): > 100 µM
- TGI (SK-OV-3 ovarian): > 100 µM
- TGI (A498 renal): > 100 µM
- TGI (IGROV1 ovarian): > 100 µM
- TGI (SF-295 CNS): > 100 µM
- TGI (SR leukemia): > 100 µM
- TGI (NCI-H522 lung): > 100 µM
- TGI (UACC-62 melanoma): > 100 µM
- TGI (KM12 colon): > 100 µM

Structure (SMILES): COc1cc2c3c(n(CCCN4CCCNCC4)c(=O)c2cc1OC)-c1cc2c(cc1C3=O)OCO2
- GI50 (MOLT-4 leukemia): 0.0384 µM
- TGI (MOLT-4 leukemia): 50 µM
- GI50 (SK-OV-3 ovarian): 4 µM
- TGI (SK-OV-3 ovarian): 15.5 µM
- GI50 (A498 renal): 1.16 µM
- TGI (A498 renal): 13.5 µM
- GI50 (IGROV1 ovarian): 1.15 µM
- TGI (IGROV1 ovarian): 21.5 µM
- GI50 (PC-3 prostate): 1.33 µM
- TGI (PC-3 prostate): 9.97 µM
- GI50 (SF-295 CNS): 0.2 µM
- TGI (SF-295 CNS): 2.66 µM
- GI50 (NCI-H522 lung): 1.87 µM
- TGI (NCI-H522 lung): 24.8 µM
- GI50 (UACC-62 melanoma): 0.515 µM
- TGI (UACC-62 melanoma): 6.04 µM
- GI50 (KM12 colon): 1.21 µM
- TGI (KM12 colon): 5.06 µM

Structure (SMILES): O=C(N/C=C/C=C/Sc1ccccc1)OCc1ccccc1
- TGI (MOLT-4 leukemia): > 100 µM
- TGI (SK-OV-3 ovarian): 64.6 µM
- TGI (IGROV1 ovarian): 42.1 µM
- TGI (SF-295 CNS): 35.4 µM
- TGI (SR leukemia): > 100 µM
- TGI (NCI-H522 lung): 29.7 µM
- TGI (UACC-62 melanoma): 29.9 µM
- TGI (KM12 colon): 36.1 µM

Structure (SMILES): C=C1C(=O)c2cc3c(cc2C(c2cc(OC)c(OC)c(OC)c2)[C@@H]1C(=O)O)OCO3 (stereo not given in full)
- TGI (MOLT-4 leukemia): > 100 µM
- TGI (SK-OV-3 ovarian): > 100 µM
- TGI (A498 renal): > 100 µM
- TGI (IGROV1 ovarian): > 100 µM
- TGI (SF-295 CNS): > 100 µM
- TGI (NCI-H522 lung): > 100 µM
- TGI (UACC-62 melanoma): > 100 µM
- TGI (KM12 colon): > 100 µM

Structure (SMILES): COC1=CC(=O)OC(/C=C(C)/C=C/C2=C(C)CCCC2(C)C)C1 (stereo not given)
- TGI (MOLT-4 leukemia): > 100 µM
- TGI (SK-OV-3 ovarian): > 100 µM
- TGI (A498 renal): > 100 µM
- TGI (IGROV1 ovarian): > 100 µM
- TGI (SF-295 CNS): > 100 µM
- TGI (SR leukemia): > 100 µM
- TGI (NCI-H522 lung): > 100 µM
- TGI (UACC-62 melanoma): > 100 µM
- TGI (KM12 colon): > 100 µM

Reference: PubChem BioAssay (NCI)
